In patent US20260078120A1, “SUBSTITUTED PYRIDOPYRIMIDINONES” (MIRATI THERAPEUTICS, INC., priority 2022, published 2026) one finds IC50 data, which are given here for 18 molecules.

pIC50: −log10 of the molar value. A value given as a limit tells only on which side of the number the result lay.

One may read the pIC50 as −log10 of the IC50, conventionally taken in molar units.

Format in all cases: cell-based
Experiment [1] relates to T47D (PI3Kα H1047R mutant) cells. Kind of experiment: Inhibition of pAKT formation, alphaLISA SureFire Ultra AKT 1/2/3 (pS473), T47D cells. To be noted: Homo sapiens, T47D, T47D (PI3Kα H1047R mutant) cells; inhibition of pAKT (pS473) formation; approximately one hour or 24 hours treatment; read-out: T47D pAKT (H1047R mutant) IC50. The protocol: The ability of a compound of Formula (I) to inhibit the formation of pAKT was measured using alphaLISA Surefire Ultra AKT 1/2/3 (pS473) Assay Kit (#ALSU-PAKT-B50K) was obtained from Perkin Elmer (Waltham, MA).
To prepare assay plates for pAKT alphaLISA assays, cells were trypsinized, resuspended in fresh media, and viable cells were counted utilizing trypan blue exclusion. Prior to seeding, cells were washed with PBS and resuspended in HBSS (Gibco, #14025092). T47D (12,000/w), SKBR3(12,000/w), or MKN1(24,000/w) cells were seeded at 12 μl per well in a solid white flat bottom 384 cell culture plate (Perkin Elmer #6007680).
Immediately after seeding, cells were dosed using an Echo Liquid Handler (Beckman Coulter) with compounds at a […] starting concentration and serially diluted (1:4) for a total of 10 concentrations. […] Cells were incubated with the compounds (solubilized in DMSO) for approximately one hour or 24 hours at 37° C. After one hour (or 24 hours) of treatment, cells were lysed with 3 μl of the 5× lysis buffer (provided and incubated at room temperature for 15 min on a microtiter plate shaker). Once cells were sufficiently lysed, 7.5 μl of the acceptor bead mix (made using the manufacturers recommended dilutions) was added to each well and left on the microtiter plate shaker for 1 min prior to incubating plates at room temperature for one hour, in the absence of light. After one hour of incubation with the acceptor bead mix, 7.5 μl of the donor bead mix (made using the manufacturers recommended dilutions) was added to each well and left on the microtiter plate shaker for 1 min prior to incubating plates at room temperature overnight in the absence of light. Plates were then imaged the following day using a CLARIOstar microplate reader (BMG Labtech, Germany).
Percent of control values were calculated by subtracting the average signal from the positive control (alpelisib) treated wells from all treated wells (including DMSO control wells) and then divided by the average signal from the vehicle DMSO treated control wells. Percent of vehicle control values were plotted as log (inhibitor) vs. response-Variable slope (four parameters) for curve fitting and IC50 values were determined using XLfit.
Key: N.D. =not determined
Inhibition of pAKT in T47D (PI3Kα H1047R mutant) cells by Exemplary Compounds of Formula (I)
For orientation: Bead proximity is the source of the signal in Alpha formats.

Experiment [2] shares this test system. Put plainly: CellTiter-Glo 2.0 luminescent cell viability assay, 72 hours, T47D cells. To be noted: Homo sapiens, T47D, 72 h, T47D (PI3Kα H1047R mutant) cells, CellTiter-Glo, approximately 72 hours; read-out: T47D (H1047R mutant) Viability IC50. The method in brief: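 Cells seeded at 1000 per well overnight were dosed with a 10-concentration, 1:4 series starting at 10 µM and incubated ~72 h at 37° C. Viability was read by CellTiter-Glo 2.0 luminescence after 30 min at room temperature. IC50 came from four-parameter fits of percent vehicle control.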
(Cellular ATP, detected with luciferase, serves as a proxy for viable cell number.)

Experiment [3] relates to SKBR3 (PI3Kα wild type) cells. Kind of experiment: CellTiter-Glo 2.0 luminescent cell viability assay, 72 hours, SKBR3 cells. The settings on record: Homo sapiens, SK-BR-3, 72 h, SKBR3 (PI3Kα wild type) cells, CellTiter-Glo, approximately 72 hours; read-out: SKBR3 (WT) Viability IC50. Summed up: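 Viability measured via CTG luminescence following roughly 72 hours of compound exposure at 37° C. Dosing used a 10 um starting concentration diluted 1:4 over 10 points; percent-of-vehicle data fitted with a variable-slope four-parameter model for IC50.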

For the molecule `Cc1cc([C@@H](C)Nc2ccccc2C(=O)O)c2nc(N3CCN(c4ccccc4C#N)CC3)c(C)c(=O)n2c1` [Example 10-45, (R)-2-((1-(2-(4-(2-cyanophenyl)piperazin-1-yl)-3,7-dimethyl-4-oxo-4H-pyrido[1,2-a]pyrimidin-9-yl)ethyl)amino)benzoic acid], the pIC50 is 8.53 in experiment [1], 7.19 in experiment [2] and < 5.00 in experiment [3].

As to `Cc1cc([C@@H](C)Nc2ccccc2C(=O)O)c2nc(N3CCN(c4cc(C)no4)CC3)c(C)c(=O)n2c1` [Example 10-48, (R)-2-((1-(3,7-dimethyl-2-(4-(3-methylisoxazol-5-yl)piperazin-1-yl)-4-oxo-4H-pyrido[1,2-a]pyrimidin-9-yl)ethyl)amino)benzoic acid], the pIC50 was 8.53 in experiment [1], 7.18 in experiment [2] and < 5.00 in experiment [3].

With `Cc1cc([C@@H](C)Nc2ccccc2C(=O)O)c2nc(N(C)C3CC(F)(F)C3)c(C#N)c(=O)n2c1` [Example 10-49, (R)-2-((1-(3-cyano-2-((3,3-difluorocyclobutyl)(methyl)amino)-7-methyl-4-oxo-4H-pyrido[1,2-a]pyrimidin-9-yl)ethyl)amino)benzoic acid], the pIC50 in experiment [1] is 8.68; in experiment [2], 7.18; in experiment [3] it was < 5.00.

In the case of `Cc1cc([C@@H](C)Nc2ccc(Cl)nc2C(=O)O)c2nc(N3Cc4ccc(F)cc4C3)c(C#N)c(=O)n2c1` [Example 10-50, (R)-6-chloro-3-((1-(3-cyano-2-(5-fluoroisoindolin-2-yl)-7-methyl-4-oxo-4H-pyrido[1,2-a]pyrimidin-9-yl)ethyl)amino)picolinic acid], the pIC50 in experiment [1] was 8.87; in experiment [2], 7.18; in experiment [3] it was < 5.00.

Regarding `Cc1cc([C@@H](C)Nc2ccccc2C(=O)O)c2nc(N3CC(F)(F)C(F)(F)C3)c(C)c(=O)n2c1` [Example 10-51, (R)-2-((1-(3,7-dimethyl-4-oxo-2-(3,3,4,4-tetrafluoropyrrolidin-1-yl)-4H-pyrido[1,2-a]pyrimidin-9-yl)ethyl)amino)benzoic acid], the pIC50 in experiment [1] is 8.72; in experiment [2], 7.17; in experiment [3], < 5.00.

Take `Cc1cc([C@@H](C)Nc2ccccc2C(=O)O)c2nc(N3CCN(c4ccc(C#N)cc4F)CC3)c(C)c(=O)n2c1` [Example 10-55, (R)-2-((1-(2-(4-(4-cyano-2-fluorophenyl)piperazin-1-yl)-3,7-dimethyl-4-oxo-4H-pyrido[1,2-a]pyrimidin-9-yl)ethyl)amino)benzoic acid]: the pIC50 was 8.48 in experiment [1], 7.14 in experiment [2] and 5.38 in experiment [3].

For `COC1(C)CCN(c2nc3c([C@@H](C)Nc4ccccc4C(=O)O)cc(C)cn3c(=O)c2C)CC1` [Example 10-56, (R)-2-((1-(2-(4-methoxy-4-methylpiperidin-1-yl)-3,7-dimethyl-4-oxo-4H-pyrido[1,2-a]pyrimidin-9-yl)ethyl)amino)benzoic acid], the pIC50 is 8.40 in experiment [1], 7.14 in experiment [2] and < 5.00 in experiment [3].

In the case of `Cc1cc([C@@H](C)Nc2ccccc2C(=O)O)c2nc(N3CCN(c4ccccc4)CC3C)c(C#N)c(=O)n2c1` (stereo partly drawn) [Example 10-57, 2-(((1R)-1-(3-cyano-7-methyl-2-(2-methyl-4-phenylpiperazin-1-yl)-4-oxo-4H-pyrido[1,2-a]pyrimidin-9-yl)ethyl)amino)benzoic acid], the values for the negative logarithm of the IC50 (pIC50) in experiment [1], in experiment [2] and in experiment [3] were 8.29, 7.13 and < 5.00, respectively.

Consider `Cc1cc([C@@H](C)Nc2ccccc2C(=O)O)c2nc(N3CCC(c4ccn(C)n4)CC3)c(C)c(=O)n2c1` [Example 10-58, (R)-2-((1-(3,7-dimethyl-2-(4-(1-methyl-1H-pyrazol-3-yl)piperidin-1-yl)-4-oxo-4H-pyrido[1,2-a]pyrimidin-9-yl)ethyl)amino)benzoic acid], for which the pIC50 in experiment [1] was 8.40; in experiment [2] it was 7.13; in experiment [3], < 5.00.

As to `Cc1cc([C@@H](C)Nc2ccccc2C(=O)O)c2nc(NCC3(C)CC3(F)F)c(C#N)c(=O)n2c1` (stereo partly drawn) [Example 10-60, 2-(((1R)-1-(3-cyano-2-(((2,2-difluoro-1-methylcyclopropyl)methyl)amino)-7-methyl-4-oxo-4H-pyrido[1,2-a]pyrimidin-9-yl)ethyl)amino)benzoic acid], the pIC50 in experiment [1] was 8.58; in experiment [2] it was 7.01; in experiment [3], < 5.00.

As to `Cc1cc([C@@H](C)Nc2ccccc2C(=O)O)c2nc(N3CCC(F)(F)C3)c(C#N)c(=O)n2c1` [Example 10-75, (R)-2-((1-(3-cyano-2-(3,3-difluoropyrrolidin-1-yl)-7-methyl-4-oxo-4H-pyrido[1,2-a]pyrimidin-9-yl)ethyl)amino)benzoic acid], the negative-log IC50 (pIC50) in experiment [1] is 8.98; in experiment [2], 6.96; in experiment [3] it was < 5.00.

Consider `Cc1cc([C@@H](C)Nc2ccccc2C(=O)O)c2nc(N3CC4CC3C4)c(C#N)c(=O)n2c1` [Example 10-76, (R)-2-((1-(2-(2-azabicyclo[2.1.1]hexan-2-yl)-3-cyano-7-methyl-4-oxo-4H-pyrido[1,2-a]pyrimidin-9-yl)ethyl)amino)benzoic acid], for which the results for the pIC50 in experiment [1], in experiment [2] and in experiment [3] were 8.77, 6.96 and < 5.00, respectively.

On to `Cc1cc([C@@H](C)Nc2ccccc2C(=O)O)c2nc(N3CCN(c4ccc(C#N)cc4C)CC3)c(C)c(=O)n2c1` [Example 10-77, (R)-2-((1-(2-(4-(4-cyano-2-methylphenyl)piperazin-1-yl)-3,7-dimethyl-4-oxo-4H-pyrido[1,2-a]pyrimidin-9-yl)ethyl)amino)benzoic acid], for which the pIC50 was 8.42 in experiment [1], 6.97 in experiment [2] and < 5.00 in experiment [3].

With `COC1(C)CCN(c2nc3c([C@@H](C)Nc4ccccc4C(=O)O)cc(C)cn3c(=O)c2C#N)CC1` [Example 10-78, (R)-2-((1-(3-cyano-2-(4-methoxy-4-methylpiperidin-1-yl)-7-methyl-4-oxo-4H-pyrido[1,2-a]pyrimidin-9-yl)ethyl)amino)benzoic acid], the pIC50 in experiment [1] was 8.66; in experiment [2] it was 7.13; in experiment [3] it was < 5.00.

Consider `Cc1cc([C@@H](C)Nc2ccccc2C(=O)O)c2nc(N3CCCCC3)c(F)c(=O)n2c1` [Example 10-79, (R)-2-((1-(3-fluoro-7-methyl-4-oxo-2-(piperidin-1-yl)-4H-pyrido[1,2-a]pyrimidin-9-yl)ethyl)amino)benzoic acid], for which the pIC50 in experiment [1] is 9.52; in experiment [2], 7.11; in experiment [3], < 5.00.

As to `Cc1cc([C@@H](C)Nc2ccccc2C(=O)O)c2nc(N(C)CC3CC3)c(C#N)c(=O)n2c1` [Example 10-80, (R)-2-((1-(3-cyano-2-((cyclopropylmethyl)(methyl)amin0)-7-methyl-4-oxo-4H-pyrido[1,2-a]pyrimidin-9-yl)ethyl)amino)benzoic acid], the pIC50 is 8.70 in experiment [1], 7.12 in experiment [2] and < 5.00 in experiment [3].

For `Cc1cc([C@@H](C)Nc2ccccc2C(=O)O)c2nc(N3CCC4(CC3)C(F)(F)C4(F)F)c(C#N)c(=O)n2c1` [Example 10-81, (R)-2-((1-(3-cyano-7-methyl-4-oxo-2-(1,1,2,2-tetrafluoro-6-azaspiro[2.5]octan-6-yl)-4H-pyrido[1,2-a]pyrimidin-9-yl)ethyl)amino)benzoic acid], the results for the pIC50 in experiment [1], in experiment [2] and in experiment [3] were 8.60, 7.11 and < 5.00, respectively.

On to `Cc1cc([C@@H](C)Nc2ccccc2C(=O)O)c2nc(N3CCN(C(=O)c4ccc(Cl)cc4)CC3)c(C)c(=O)n2c1` [Example 10-82, (R)-2-((1-(2-(4-(4-chlorobenzoyl)piperazin-1-yl)-3,7-dimethyl-4-oxo-4H-pyrido[1,2-a]pyrimidin-9-yl)ethyl)amino)benzoic acid], for which the pIC50 is 8.59 in experiment [1], 7.11 in experiment [2] and 5.10 in experiment [3].
